Measured values: publication PMC10767396 (Advanced Science, 2023)

Legend:
[1] = Stability in human serum (HPLC); format: in vitro ADME; settings: 37 °C
BV2 cells [2] = test: LDH cytotoxicity assay in BV2 cells; format: cell-based, murine
Procedure: (§1) Briefly, for microglia‐related amyloid (Aβ) phagocytosis study, BV2 cells were seeded in a 6‐well confocal dish (400k cells mL^−1) and cultured overnight for ≈90% confluency. […] Then, media were collected to perform the LDH assay for cell cytotoxicity assessment. Cells were washed carefully with PBS (2x) and lysed by adding 200 µL of MPER++ (10 mL MPER with 1% protease cocktail inhibitor and 1% EDTA) in each well. Cell lysates were collected in 1.5 mL Eppendorf tube and centrifuged at 12 000 rpm at 4 °C for 15 min and supernatants were collected for further studies. Total protein was quantified using the BCA protein assay kit (Pierce). Briefly, BV2 cells were cultured following previously published methods and grew in DMEM media containing 10% heat‐inactivated fetal bovine serum, 2 mM L‐Glutamine, and 1% penicillin/streptomycin (Life Technologies). […] Subsequently, media were collected and applied to LDH to assess cell viability; cells were extensively washed with PBS and were lysed in MPER lysis buffer (MPER++) supplemented with EDTA‐free protease inhibitors (Roche), Halt phosphatase inhibitor cocktail (Thermo Fisher Scientific). Lysates were centrifuged as before (12 000 rpm at 4 °C for 15 min) and supernatants were collected for further analysis. […]

BV2 cells [3] = test: Stereomicroscopic images of BV2 cell morphology; format: cell-based, murine
Text: Stereomicroscopic images were captured before and after the treatment of different concentrations of PB118 on BV2 cells to elucidate the cytotoxicity based on the cellular morphology of BV2 cells by using Invitrogen EVOS XL Core stereo microscope.

BV2 cells [4] = test: Microglial Aβ phagocytosis, MSD Aβ peptide panel 1 (4G8); format: cell-based, murine; settings: Aβ42 2 µg/mL + PB118 500 and 1000 nM, 6 h, vs control
Procedure: as §1

BV2 cells [5] = test: Western blot of PB118-treated BV2 cell lysates; format: cell-based, murine; settings: PB118 500 and 1000 nM, 6 h
Procedure: The previously described WB method was implemented to perform and analyze western blot membrane.^[ [34] ^] […] Proteins were separated by the electrophoresis using the 4–12% Bis‐Tris SDS‐PAGE Gel System (Invitrogen, Thermo Fisher Scientific), followed by membrane transfer to PVDF membranes (Invitrogen, Thermo Fischer scientific). Next, the membranes were blocked for 30 min with the Superblock (Thermo Scientific) and then incubated overnight with primary antibodies following the dilutions mentioned below. The membranes were then washed with TBST (four times) and incubated with appropriate secondary antibodies (1:10 000 dilution) at room temperature for 2 h. Then, membranes were incubated with Supersignal West Femto (Life Technologies), and the images for immunoreactivity were developed and visualized by the LICOR Odyssey Fc. Quantifications of proteins of interest were performed by Image J software.

BV2 cells [6] = test: Immunocytochemistry (ICC) in BV2 cells; format: cell-based, murine
Procedure: ICC was performed following previously published articles.^[ [36] ^] Briefly, BV2 cells were seeded and grown overnight in a LabTek 8‐well chamber wells having ≈100 k cells well^−1. […] Discarded the media after 3 h, washed each well carefully with 150–300 µL of PBS (2x), and fixed with 4% PFA for 20 min at r.t. After that, washed each well again with 150–300 µL of PBS (2x) at r.t and incubated with blocking buffer (5% Donkey serum with 0.1% Triton‐X‐100 in PBS). Aspirate the blocking buffer and add 150 µL of primary antibody in each well and keep it at 4 °C for overnight shaking. Washed with washing buffer (PBS containing 0.1% Triton‐X‐100, 0.05% Tween‐20) twice and incubated with specific secondary antibody in each of the wells with gently shaking for 2 h at r.t. Discarded secondary solution and washed with washing buffer twice and incubated 10 min with 2 nM of Hoechst solution for another 10 min at r.t, washed with PBS (two times) and finally mounted with Prolong Gold antifade reagent, dried at r.t, and covered with a cover slip. Microscopic images were captured with these slides to understand the activity of HDAC6 toward tubulin/microtubule.

BV2 cells [7] = test: Cold depolymerization assay; format: cell-based, murine; settings: PB118 500 nM 24 h, on ice 10 and 20 min in comparison to 0 min
Procedure: To perform this assay, BV2 cells were seeded and cultured in an 8‐well Labtek chamber slide for overnight (100 k well^−1). […] Then cells were incubated on ice to induce microtubule depolymerization and were fixed using 4% PFA at different time points (0, 10, and 20 min). After that, cells were washed with PBS three times and blocked with blocking buffer (5% Donkey serum with 0.1% Triton‐X‐100 in PBS) and immunostaining was performed with these fixed cells against α‐tubulin (green) and acetylated α‐tubulin (red) antibodies. Appropriate secondary antibodies were used for visualization of these cells and images were captured in a Nikon C2 confocal microscopy.

LPS induced BV2 cells = test: Multiplex MSD-cytokine assay in LPS-induced BV2 cells; format: cell-based, murine; settings: LPS 10 ng/mL + PB118 500/1000 nM, 24 h, media
Procedure: Briefly, for microglia‐related amyloid (Aβ) phagocytosis study, BV2 cells were seeded in a 6‐well confocal dish (400k cells mL^−1) and cultured overnight for ≈90% confluency. […] Then, media were collected to perform the LDH assay for cell cytotoxicity assessment. Cells were washed carefully with PBS (2x) and lysed by adding 200 µL of MPER++ (10 mL MPER with 1% protease cocktail inhibitor and 1% EDTA) in each well. Cell lysates were collected in 1.5 mL Eppendorf tube and centrifuged at 12 000 rpm at 4 °C for 15 min and supernatants were collected for further studies. Total protein was quantified using the BCA protein assay kit (Pierce). Briefly, BV2 cells were cultured following previously published methods and grew in DMEM media containing 10% heat‐inactivated fetal bovine serum, 2 mM L‐Glutamine, and 1% penicillin/streptomycin (Life Technologies). […] Subsequently, media were collected and applied to LDH to assess cell viability; cells were extensively washed with PBS and were lysed in MPER lysis buffer (MPER++) supplemented with EDTA‐free protease inhibitors (Roche), Halt phosphatase inhibitor cocktail (Thermo Fisher Scientific). Lysates were centrifuged as before (12 000 rpm at 4 °C for 15 min) and supernatants were collected for further analysis.
(§2) MSD immunoassays are quite robust and based on combining multiarray technology and electrochemiluminescence to identify numerous proteins in a single sample.

[8] = tested on: 3D human neural stem cell model of AD (ReNcell VM); test: LDH assay in 3D human neural culture; format: cell-based; settings: PB118 1 or 5 µM, 3 weeks
Procedure: Human precursor ReN cells were used to prepare 3D AD environment following previous work.^[ [30] ^] Briefly, for 3D layers of cells, BD Matrigel stock solution (BD Biosciences) was diluted with ReN cell differentiation medium (in 1:15 dilution) (chilled) followed by vertexing with the cell pellets for 20 s. A final cell concentration of ≈2 × 10^6 cells mL^−1 was used and this cell/ Matrigel mixtures were immediately transferred ([…] in each) into an Optilux clear bottom 96‐well plates (BD Biosciences). A thin layer ([…]) of 3D gels was formed at the bottom of the plates after incubating the plates at 37 °C for 1 h and the media were changed. For differentiation before drug treatment, 3D‐plated cells were cultured for 6 weeks, and the media were changed every 3–4 days. […] The cells were harvested for extraction using a lysis buffer mixture (Lysis 6 buffer with protease inhibitor; 1:100), followed by shaking for 1 h at cold room and centrifugation at 2 k rpm for 30 min. Supernatants were collected and further analyzed by MSD immunoassay kit and western blot analysis. The previously reported CytoTox‐ONE assay was performed to analyze cell viability by measuring the release of lactate dehydrogenase (LDH) following the manufacturer's guidelines (Promega; Madison, WI). Briefly, 50 µL of cell culture media was utilized and a 1:1 dilution of substrate was added. […]

[9] = tested on: 3D human neural stem cell model of AD (ReNcell VM); test: MSD phospho (Thr231)/total tau and Aβ (6E10) assay in 3D-AD culture; format: cell-based; settings: 3 weeks
Procedure: Human precursor ReN cells were used to prepare 3D AD environment following previous work.^[ [30] ^] Briefly, for 3D layers of cells, BD Matrigel stock solution (BD Biosciences) was diluted with ReN cell differentiation medium (in 1:15 dilution) (chilled) followed by vertexing with the cell pellets for 20 s. A final cell concentration of ≈2 × 10^6 cells mL^−1 was used and this cell/ Matrigel mixtures were immediately transferred ([…] in each) into an Optilux clear bottom 96‐well plates (BD Biosciences). A thin layer ([…]) of 3D gels was formed at the bottom of the plates after incubating the plates at 37 °C for 1 h and the media were changed. For differentiation before drug treatment, 3D‐plated cells were cultured for 6 weeks, and the media were changed every 3–4 days. […] The cells were harvested for extraction using a lysis buffer mixture (Lysis 6 buffer with protease inhibitor; 1:100), followed by shaking for 1 h at cold room and centrifugation at 2 k rpm for 30 min. Supernatants were collected and further analyzed by MSD immunoassay kit and western blot analysis.
as §2

[10] = tested on: human microglia HMC3 cells; test: LDH assay and stereomicroscopy in HMC3 cells; format: cell-based; settings: PB118 500 and 1000 nM, 6 h
Procedure: The previously reported CytoTox‐ONE assay was performed to analyze cell viability by measuring the release of lactate dehydrogenase (LDH) following the manufacturer's guidelines (Promega; Madison, WI). Briefly, 50 µL of cell culture media was utilized and a 1:1 dilution of substrate was added. […] Under the influence of the assay's substrate, resazurin was converted to resorufin, its fluorescent form, owing to LDH. The fluorometric results were used to compare the experiment group to the control group to assess the cytotoxicity of treated compounds.

46 CNS‐related targets = tested on: 46 CNS‐related targets; set-up: method as in PMID 36213537; settings: cited from earlier work
[11] = set-up: method as in PMID 36213537; settings: cited from earlier work
[12] = set-up: method as in PMID 36213537; settings: human liver microsomes; cited from earlier work
[13] = set-up: method as in PMID 36213537; settings: C57BL/6 mice, i.p. 1 mg kg^-1, blood and brain at 30 min, 1 and 4 h; cited from earlier work
HDAC6 enzyme = settings: read-out: IC50 for HDAC6; enzyme inhibition assay; cited from earlier work
HDAC1 = settings: read-out: IC50 for HDAC1; enzyme inhibition assay; cited from earlier work
[14] = higher concentration of PB118 (1 or 5 µM tested)

Structure (SMILES): O=C(NO)c1ccc(CN2CCCCc3ccccc32)c(F)c1 [PB118]
- decay constant in human serum [1]: 6.3e-06 s⁻¹
- mean lifetime in human serum [1]: 43.6 h
- compound remaining in human serum ([1]; after 24 h, HPLC): ≈ 57%
- half-life (t1/2) in human serum ([1]; calculated by formula of Figure S2b): 30.2 h
- half-life at 5 mM ([1]; human, calculated by formula of Figure S2b, read-out: half-life (t1/2) in human serum (converted)): ~30.2 h
- cell viability (LDH assay) (BV2 cells [2]; LPS 10 ng/mL +/- PB118 500 or 1000 nM, 24 h, treated vs control): No significant difference
- cytotoxicity (LDH assay) (BV2 cells [2]; PB118 500 and 1000 nM with or without Aβ42 (2 µg/mL), 6 h): no significant cytotoxicity
- cell morphology (stereomicroscopic images) (BV2 cells [3]; LPS +/- PB118, 24 h): no significant difference of cell morphology
- cell morphology (microscopic images before and after treatment) (BV2 cells [3]; PB118 with or without Aβ42, 6 h): no significant change in cell morphology
- Aβ42 levels in cell lysates (phagocytosis) (BV2 cells [4]): significant increase
- HDAC6 expression (WB, normalized to β-actin) (BV2 cells [5]): non‐significant change
- Ac-α-tubulin protein level (WB, normalized to α-tubulin) (BV2 cells [5]; vs control): significant increase
- HDAC6 expression (ICC) (BV2 cells [6]; LPS 10 ng/mL + PB118 500 nM): lack of significant change
- α-tubulin network (ICC) (BV2 cells [6]; LPS 10 ng/mL + PB118 500 nM): lack of significant change
- acetylated tubulin levels (ICC) with or without LPS (BV2 cells [6]; PB118 500 nM with or without LPS 10 ng/mL): no change
- acetyl α-tubulin expression (ICC) (BV2 cells [6]; PB118 500 nM, 3 h, vs vehicle): higher compared to vehicle
- acetylated α-tubulin protein expression in cold depolymerization condition (BV2 cells [7]): significantly higher
- IL-12p-70 level (LPS induced BV2 cells): significant reductions
- KC/GRO (CXCL1) level (LPS induced BV2 cells): significant reductions
- interleukin-6 (IL-6) level (LPS induced BV2 cells): significant reductions
- cytotoxicity (LDH assay) [8]: no cytotoxicity
- Aβ42 generation ([9]; PB118 1 or 5 µM): significantly reduced
- p-tau (Thr231) level [9, 14]: significantly reduced
- total tau level [9, 14]: significantly reduced
- morphology and cytotoxicity (stereomicroscopy, LDH assay) [10]: no detrimental change in morphology or cytotoxicity
- off-target binding profile (46 CNS‐related targets): good off‐target binding profile
- binding with human plasma [11]: 99.4%
- half-life in human microsomal liver [12]: 1.13 h
- BBB crossing (brain/plasma study) [13]: BBB crossing ability
- IC50 (HDAC6 enzyme): 0.0056 µM
- IC50 (HDAC1): 7.82 µM
